Values quoted from earlier work in PMC6591635, “Advancing the Therapeutic Potential of Indoleamides for Tuberculosis” (Antimicrobial Agents and Chemotherapy, 2019).
≈ marks a conversion by molar mass, not a printed value.

Test system: M. tuberculosis H37Rv
Conditions: M. tuberculosis H37Rv; concentration used as 1× MIC; cited from earlier work

In the case of Cc1cc(C)c2cc(C(=O)NC3CCCCCCC3)[nH]c2c1 [compound 1], the “MIC (1× MIC)” value is listed as 4 ng/mL (≈ 0.0134 µM).
